Measured values taken from US11814376B2, “Hepatitis b core protein modulators” (Assembly Biosciences, Inc., priority 2015, dated 2023).

Legend:
[1] = tested on: HBV viral load in AD38 cells; assay: Viral load production in AD38 cells, quantitative PCR of the core sequence in supernatant; type: cell-based; conditions: 10 μM compound, 6 days at 37° C., supernatant qPCR, relative to DMSO control; for activity at 10 µM: Hepatitis B virus, 144 h, read-out: AD38 Viral Load (%) (VL with cmpd/VL in DMSO control) at 10 μM
[2] = tested on: AD38 cells; assay: Viability of AD38 cells (Promega CellTiter-Glo); type: cell-based; conditions: 10 μM compound, 6 days, CellTiter-Glo luminescence normalized to DMSO control (100%)
Summary of the method: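 AD38 cells were seeded at 50,000/well on collagen-coated plates and treated with compound added as a 10× solution in 10% DMSO for 6 days at 37° C. Viability was measured by CellTiter-Glo luminescence in tetracycline-free medium with 2% FBS and 1% DMSO, and expressed as percent of DMSO control.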

SMILES | activity at 10 µM [1] [%] | AD38 Viability Normalized Result (cmpd/DMSO %) at 10 μM [2] [%] | AD38 Viral Load (%) (VL with cmpd/VL in DMSO control) at 10 μM [1]
CS(=O)(=O)Nc1ccc(-c2ncc(CNC(=O)c3ccc4c(c3)NC(=O)c3ccccc3S4(=O)=O)s2)cc1 [compound 1857] | 1.5 | 107 | –
NC(=O)c1ccc(-c2ncc(CNC(=O)c3ccc4c(c3)NC(=O)c3ccccc3O4)s2)cc1 [compound 1770, N-((2-(4-carbamoylphenyl)thiazol-5-yl)methyl)-11-oxo-10, 11-dihydrodibenzo [b, f] [1, 4] oxazepine-8-carboxamide] | 32.5 | 77 | –
O=C(NCc1cnc(-c2ccc(C#CCCO)cc2)s1)c1ccc2c(c1)NC(=O)c1ccccc1S2(=O)=O [11002-A, N-((2-(4-(4-hydroxybut-1-yn-1-yl)phenyl)thiazol-5-yl)methyl)-11-oxo-10, 11-dihydrodibenzo [b, f] [1, 4] thiazepine-8-carboxamide 5,5-dioxide] | 1 | 106 | –
Cc1ncc(CNC(=O)c2ccc3c(=O)c4ccccc4c(=O)[nH]c3c2)s1 [compound 1592] | 1.3 | 99 | –
O=C(O)c1ccc(-c2ncc(CNC(=O)c3ccc4c(c3)NC(=O)c3ccccc3S4)s2)cc1 [compound 1599, 4-(5-((11-oxo-10, 11-dihydrodibenzo [b, f] [1, 4]thiazepine-8-carboxamido)methyl)thiazol-2-yl) benzoic acid] | 5.9 | 61 | –
N#Cc1ncc(CNC(=O)c2ccc3c(c2)NC(=O)c2ccccc2S3(=O)=O)s1 [compound 1628] | 21.8 | 95 | –
O=C(NCc1cnc(-n2ccnn2)s1)c1ccc2c(c1)NC(=O)c1ccccc1S2(=O)=O [compound 11047] | 1.4 | 96 | –
Cc1c(C(=O)NCc2cnc(-c3ccc(O)cc3)s2)ccc2c1NC(=O)c1ccccc1S2 [compound 1755] | 0.4 | 93 | –
CCc1ncc(CNC(=O)c2ccc3c(c2)NC(=O)c2ccccc2O3)s1 [compound 1558] | 0.5 | 106 | –
Cc1c(C(=O)NCc2cnc(C(F)(F)F)s2)cc(Br)c2c1NC(=O)c1ccccc1S2 [compound 1914] | 120 | 77 | –
Cl.O=C(NCc1cnc(-c2ccc(OCCC3CCCN3)cc2)s1)c1ccc2c(c1)NC(=O)c1ccccc1S2(=O)=O (centres unmarked) [compound 1996, 11-oxo-N-((2-(4-(2-(pyrrolidin-2-yl)ethoxy)phenyl)thiazol-5-yl)methyl)-10, 11-dihydrodibenzo [b, f] [1, 4] thiazepine-8-carboxamide 5,5-dioxide hydrochloride] | 17.4 | 100 | –
O=C(NCc1cnc(-c2ccc(O)cc2F)s1)c1ccc2c(c1)NC(=O)c1ccccc1O2 [compound 1704] | 47.6 | 96 | –
O=C(NCc1cnc(-c2cncnc2)s1)c1ccc2c(c1)NC(=O)c1ccccc1S2(=O)=O [compound 1626] | 2.7 | 99 | –
Cc1c(C(=O)NCc2cnc(-n3cccn3)s2)ccc2c1NC(=O)c1ccccc1S2 [C20-02] | 0.5 | 95 | –
COc1ccnc(-c2ncc(CNC(=O)c3ccc4c(c3)NC(=O)c3ccccc3S4(=O)=O)s2)c1 [1880-A, N-((2-(4-methoxypyridin-2-yl)thiazol-5-yl)methyl)-11-oxo-10, 11-dihydrodibenzo [b, f] [1, 4] thiazepine-8-carboxamide 5,5-dioxide] | 0.7 | 124 | –
NC(=O)c1ccc(-c2ncc(CNC(=O)c3ccc4c(c3)NC(=O)c3ccccc3S4(=O)=O)s2)cc1 [compound 1764, N-((2-(4-carbamoylphenyl)thiazol-5-yl)methyl)-11-oxo-10, 11 dihydrodibenzo [b, f] [1, 4] thiazepine-8-carboxamide 5,5-dioxide] | 1.1 | 107 | –
O=C(NCc1cnc(-c2ccc(O)cc2)s1)c1cc2c(cc1F)Sc1ccccc1C(=O)N2 [compound 1749] | 54.3 | 109 | –
Nc1ccc(-c2ncc(CNC(=O)c3ccc4c(c3)NC(=O)c3ccccc3S4(=O)=O)s2)cc1 [1645-B, N-((2-(4-aminophenyl)thiazol-5-yl)methyl)-11-oxo-10, 11-dihydrodibenzo [b, f] [1, 4] thiazepine-8-carboxamide 5,5-dioxide] | 77.8 | 100 | –
N#Cc1ccc(-c2ncc(CNC(=O)c3ccc4c(c3)NC(=O)c3ccccc3S4(=O)=O)s2)cc1 [1654-A, N-((2-(4-cyanophenyl)thiazol-5-yl)methyl)-11-oxo-10, 11-dihydrodibenzo [b, f] [1, 4] thiazepine-8-carboxamide 5,5-dioxide] | 2.6 | 68 | –
CC(C)(NC(=O)c1ccc2c(c1)NC(=O)c1ccccc1S2)c1cncs1 [compound 1549] | 106 | 105 | –
O=C(NCc1cnc(-c2ccc(OCCCN3CCC3)cc2)s1)c1ccc2c(c1)NC(=O)c1ccccc1S2(=O)=O [compound 11142] | – | 87 | 0.8
O=C(NCc1cnc(-c2ccc(O)cc2)s1)c1ccc2c(c1)NC(=O)c1cc(F)ccc1S2 [compound 1746] | 5.6 | 92 | –
CC(=O)Nc1ccc(-c2ncc(CNC(=O)c3ccc4c(c3)NC(=O)c3ccccc3S4(=O)=O)s2)cc1 [compound 1932] | 2.2 | 101 | –
CCc1ncc(CNC(=O)c2ccc3c(c2)NC(=O)c2ccccc2S3(=O)=O)s1 [compound 1551] | 0.4 | 99 | –
O=C(NCc1cnc(-c2ccc(OCCCN3CCOCC3)cc2)s1)c1ccc2c(c1)NC(=O)c1ccccc1O2 [compound 11161, N-((2-(4-(3-morpholinopropoxy)phenyl)thiazol-5-yl)methyl)-11-oxo-10, 11-dihydrodibenzo [b, f] [1, 4] oxazepine-8-carboxamide] | 1.7 | 104 | –
O=C(NCc1cnc(-c2ccc(O)cc2)s1)c1ccc2c(c1)NC(=O)c1c(F)cccc1S2 [compound 1752] | 29.8 | 98 | –
O=C(NCc1cnc(Cc2ccc(O)cc2)s1)c1ccc2c(c1)NC(=O)c1ccccc1S2(=O)=O [compound 1823, N-((2-(4-hydroxybenzyl)thiazol-5-yl)methyl)-11-oxo-10, 11-dihydrodibenzo [b, f] [1, 4] thiazepine-8-carboxamide 5,5-dioxide] | 5.2 | 96 | –
O=C1Cc2cc(-c3ncc(CNC(=O)c4ccc5c(c4)NC(=O)c4ccccc4S5(=O)=O)s3)ccc2N1 [compound 1821] | 0.5 | 102 | –
